Measured values as given in patent US20250114338A1, “TETRAHYDRO-PYRIDO[3,4-b]INDOLE ESTROGEN RECEPTOR MODULATORS AND USES THEREOF” (Genentech, Inc., priority 2014, published 2025).

System: ER-alpha MCF7
Test: ER-alpha MCF7 HCS EC50; stated as measured by in vitro cell proliferation assays of Examples 902 and 903
Assay type: cell-based
Details: Homo sapiens, MCF7, MCF7 cells; Table 2
Excerpt: The CellTiter-Glo® Luminescent Cell Viability Assay is a homogeneous method to determine the number of viable cells in culture based on quantitation of the ATP present, which signals the presence of metabolically active cells. The CellTiter-Glo® Assay is designed for use with multiwell plate formats, making it ideal for automated high-throughput screening (HTS), cell proliferation and cytotoxicity assays. The homogeneous assay procedure involves adding a single reagent (CellTiter-Glo® Reagent) directly to cells cultured in serum-supplemented medium. Cell washing, removal of medium or multiple pipetting steps are not required. The Cell Titer-Glo® Luminescent Cell Viability Assay, including reagents and protocol are commercially available (Promega Corp., Madison, WI, Technical Bulletin TB288).
The assay assesses the ability of compounds to enter cells and inhibit cell proliferation. The assay principle is based on the determination of the number of viable cells present by quantitating the ATP present in a homogenous assay where addition of the Cell Titer-Glo® reagent results in cell lysis and generation of a luminescent signal through the luciferase reaction. The luminescent signal is proportional to the amount of ATP present.
Cell Culture Medium: RPMI or DMEM high glucose, 10% Fetal Bovine Serum, 2 mM L-Glutamine, P/S. Incubate O/N (overnight) at 37° C., 5% CO2.
Day 2—Add Drug to Cells, Compound Dilution, DMSO Plates (serial 1:2 for 9 points). Add 20 μl of compound at 10 mM in the 2nd column of 96 well plate. […] Add 147 μl of Media into all wells. Transfer 3 μl of DMSO+ compound from each well in the DMSO Plate to each corresponding well on Media Plate using Rapidplate® (Caliper, a Perkin-Elmer Co.). For 2 drug combination studies, transfer one drug 1.5 μl of DMSO+ compound from each well in the DMSO Plate to each corresponding well on Media Plate using Rapidplate. Then, transfer another drug 1.5 μl to the medium plate.
Drug Addition to Cells, Cell Plate (1:10 dilution): Add 6 μl of media+ compound directly to cells (54 μl of media on the cells already). Incubate 3 days at 37° C., 5% CO2 in an incubator that will not be opened often.
Day 5—Develop Plates, Thaw Cell Titer Glo Buffer at room temperature: Remove Cell Plates from 37° C. and equilibrate to room temperature for about 30 minutes. Add Cell Titer-Glo® Buffer to Cell Titer-Glo® Substrate (bottle to bottle). Add 30 μl Cell Titer-Glo® Reagent (Promega cat. #G7572) to each well of cells. Place on plate shaker for about 30 minutes. Read luminescence on Analyst HT Plate Reader (half second per well).
Cell viability assays and combination assays: Cells were seeded at 1000-2000 cells/well in 384-well plates for 16 h. On day two, nine serial 1:2 compound dilutions were made in DMSO in a 96 well plate. The compounds were further diluted into growth media using a Rapidplate® robot (Zymark Corp., Hopkinton, MA). The diluted compounds were then added to quadruplicate wells in 384-well cell plates and incubated at 37° C. and 5% CO2. After 4 days, relative numbers of viable cells were measured by luminescence using Cell Titer-Glo® (Promega) according to the manufacturer's instructions and read on a Wallac Multilabel Reader® (PerkinElmer, Foster City). EC50 values were calculated using Prism® 4.0 software (GraphPad, San Diego).
5 ul of each individual compound concentration and each control compound was transferred to the cell plate. Fulvestrant was added to control wells at a final concentration of 100 nM). DMSO was added to negative control wells (0.2% v/v).

SMILES	EC50 [nM]
C[C@@H]1Cc2c([nH]c3ccccc23)[C@@H](c2c(F)cc(OCCN3CC(CF)C3)cc2F)N1C(=O)CC1CC1 [Example 157, 2-cyclopropyl-1-[(1R,3R)-1-[2,6-difluoro-4-[2-[3-(fluoromethyl)azetidin-1-yl]ethoxy]phenyl]-3-methyl-1,3,4,9-tetrahydropyrido[3,4-b]indol-2-yl]ethanone]	5
C[C@@H]1Cc2c([nH]c3ccccc23)[C@@H](c2c(F)cc(OCCN3CC(C)(CF)C3)cc2F)N1CC(C)(C)F [Example 160, (1R,3R)-1-[2,6-difluoro-4-[2-[3-(fluoromethyl)-3-methyl-azetidin-1-yl]ethoxy]phenyl]-2-(2-fluoro-2-methyl-propyl)-3-methyl-1,3,4,9-tetrahydropyrido[3,4-b]indole]	0.285
C[C@@H]1Cc2c([nH]c3ccccc23)[C@@H](c2c(F)cc(OC3CN(C)C3)cc2F)N1CC(C)(C)F [Example 161, (1R,3R)-1-[2,6-difluoro-4-(1-methylazetidin-3-yl)oxy-phenyl]-2-(2-fluoro-2-methyl-propyl)-3-methyl-1,3,4,9-tetrahydropyrido[3,4-b]indole]	0.0413
CCN1CC(Oc2cc(F)c([C@@H]3c4[nH]c5ccccc5c4C[C@@H](C)N3CC(C)(C)F)c(F)c2)C1 [Example 162, (1R,3R)-1-[4-(1-ethylazetidin-3-yl)oxy-2,6-difluoro-phenyl]-2-(2-fluoro-2-methyl-propyl)-3-methyl-1,3,4,9-tetrahydropyrido[3,4-b]indole]	0.0528
CCCCCN1CC(Oc2cc(F)c([C@@H]3c4[nH]c5ccccc5c4C[C@@H](C)N3CC(C)(C)F)c(F)c2)C1 [Example 163, (1R,3R)-1-[2,6-difluoro-4-(1-pentylazetidin-3-yl)oxy-phenyl]-2-(2-fluoro-2-methyl-propyl)-3-methyl-1,3,4,9-tetrahydropyrido[3,4-b]indole]	0.457
C[C@@H]1Cc2c([nH]c3ccccc23)[C@@H](c2c(F)cc(OC3CN(CC4CC4)C3)cc2F)N1CC(C)(C)F [Example 164, (1R,3R)-1-[4-[1-(cyclopropylmethyl)azetidin-3-yl]oxy-2,6-difluoro-phenyl]-2-(2-fluoro-2-methyl-propyl)-3-methyl-1,3,4,9-tetrahydropyrido[3,4-b]indole]	0.216
C[C@@H]1Cc2c([nH]c3ccccc23)[C@@H](c2c(F)cc(OC3CN(C(=O)OC(C)(C)C)C3)cc2F)N1CC(C)(C)F [Example 170, tert-butyl 3-[3,5-difluoro-4-[(1R,3R)-2-(2-fluoro-2-methyl-propyl)-3-methyl-1,3,4,9-tetrahydropyrido[3,4-b]indol-1-yl]phenoxy]azetidine-1-carboxylate]	1
CC[C@H]1Cc2c([nH]c3ccccc23)[C@@H](c2c(F)cc(OCCN3CC(CF)C3)cc2F)N1CC(C)(C)F [Example 172, (1R,3S)-1-(2,6-difluoro-4-(2-(3-(fluoromethyl)azetidin-1-yl)ethoxy)phenyl)-3-ethyl-2-(2-fluoro-2-methylpropyl)-2,3,4,9-tetrahydro-1H-pyrido[3,4-b]indole]	17

Other lines, results leading:

EC50 [nM]	SMILES
0.0799	C[C@@H]1Cc2c([nH]c3ccccc23)[C@@H](c2c(F)cc(OCCN3CC(CF)C3)cc2F)N1C[C@@](C)(F)CO [Example 155, (2R)-3-[(1R,3R)-1-[2,6-difluoro-4-[2-[3-(fluoromethyl)azetidin-1-yl]ethoxy]phenyl]-3-methyl-1,3,4,9-tetrahydropyrido[3,4-b]indol-2-yl]-2-fluoro-2-methyl-propan-1-ol]
0.335	C[C@@H]1Cc2c([nH]c3ccccc23)[C@@H](c2ccc(OCCN3CC(CF)C3)cc2)N1CC(C)(C)F [Example 156, (1R,3R)-1-[4-[2-[3-(fluoromethyl)azetidin-1-yl]ethoxy]phenyl]-2-(2-fluoro-2-methyl-propyl)-3-methyl-1,3,4,9-tetrahydropyrido[3,4-b]indole]
10	C[C@@H]1Cc2c([nH]c3ccccc23)[C@@H](c2c(F)cc(OCCN3CC(CF)C3)cc2F)N1C(=O)CC1CCC1 [Example 158, 2-cyclobutyl-1-[(1R,3R)-1-[2,6-difluoro-4-[2-[3-(fluoromethyl)azetidin-1-yl]ethoxy]phenyl]-3-methyl-1,3,4,9-tetrahydropyrido[3,4-b]indol-2-yl]ethanone]
2	C[C@@H]1Cc2c([nH]c3ccccc23)[C@@H](c2c(F)cc(OC3CN(CC4CCCC4)C3)cc2F)N1CC(C)(C)F [Example 165, (1R,3R)-1-[4-[1-(cyclopentylmethyl)azetidin-3-yl]oxy-2,6-difluoro-phenyl]-2-(2-fluoro-2-methyl-propyl)-3-methyl-1,3,4,9-tetrahydropyrido[3,4-b]indole]
0.175	C[C@@H]1Cc2c([nH]c3ccccc23)[C@@H](c2c(F)cc(OC3CN(CCF)C3)cc2F)N1CC(C)(C)F [Example 166, (1R,3R)-1-[2,6-difluoro-4-[1-(2-fluoroethyl)azetidin-3-yl]oxy-phenyl]-2-(2-fluoro-2-methyl-propyl)-3-methyl-1,3,4,9-tetrahydropyrido[3,4-b]indole]
0.083	C#CCN1CC(Oc2cc(F)c([C@@H]3c4[nH]c5ccccc5c4C[C@@H](C)N3CC(C)(C)F)c(F)c2)C1 [Example 167, (1R,3R)-1-[2,6-difluoro-4-(1-prop-2-ynylazetidin-3-yl)oxy-phenyl]-2-(2-fluoro-2-methyl-propyl)-3-methyl-1,3,4,9-tetrahydropyrido[3,4-b]indole]
0.122	CC(C)N1CC(Oc2cc(F)c([C@@H]3c4[nH]c5ccccc5c4C[C@@H](C)N3CC(C)(C)F)c(F)c2)C1 [Example 168, (1R,3R)-1-[2,6-difluoro-4-(1-isopropylazetidin-3-yl)oxy-phenyl]-2-(2-fluoro-2-methyl-propyl)-3-methyl-1,3,4,9-tetrahydropyrido[3,4-b]indole]
0.409	CC(C)CN1CC(Oc2cc(F)c([C@@H]3c4[nH]c5ccccc5c4C[C@@H](C)N3CC(C)(C)F)c(F)c2)C1 [Example 169, (1R,3R)-1-[2,6-difluoro-4-(1-isobutylazetidin-3-yl)oxy-phenyl]-2-(2-fluoro-2-methyl-propyl)-3-methyl-1,3,4,9-tetrahydropyrido[3,4-b]indole]
0.471	CC[C@@H]1Cc2c([nH]c3ccccc23)[C@@H](c2c(F)cc(OCCN3CC(CF)C3)cc2F)N1CC(C)(C)F [Example 171, (1R,3R)-1-(2,6-difluoro-4-(2-(3-(fluoromethyl)azetidin-1-yl)ethoxy)phenyl)-3-ethyl-2-(2-fluoro-2-methylpropyl)-2,3,4,9-tetrahydro-1H-pyrido[3,4-b]indole]
1	C[C@@H]1Cc2c([nH]c3ccccc23)[C@@H](c2c(F)cc(OCCN3CC(CF)C3)cc2F)N1CC1(C)CCC1 [Example 173, (1R,3R)-1-[2,6-difluoro-4-[2-[3-(fluoromethyl)azetidin-1-yl]ethoxy]phenyl]-3-methyl-2-[(1-methylcyclobutyl)methyl]-1,3,4,9-tetrahydropyrido[3,4-b]indole]
0.285	C[C@@H]1Cc2c([nH]c3ccccc23)[C@@H](c2c(F)cc(OCCN3CC(CF)C3)cc2F)N1CC(F)(F)F [Example 174, (1R,3R)-1-[2,6-difluoro-4-[2-[3-(fluoromethyl)azetidin-1-yl]ethoxy]phenyl]-3-methyl-2-(2,2,2-trifluoroethyl)-1,3,4,9-tetrahydropyrido[3,4-b]indole]

Same assay, conditions: Homo sapiens; MCF7 cells; Table 2

EC50 [nM]	SMILES
0.147	C[C@@H]1Cc2c([nH]c3ccccc23)[C@@H](c2c(F)cc(OCCN3CC(CF)C3)cc2F)N1C(=O)C(C)(F)F [Example 159, 1-[(1R,3R)-1-[2,6-difluoro-4-[2-[3-(fluoromethyl)azetidin-1-yl]ethoxy]phenyl]-3-methyl-1,3,4,9-tetrahydropyrido[3,4-b]indol-2-yl]-2,2-difluoro-propan-1-one]
